Key:
blackgrass = experiment: Test B pre/postemergence blackgrass; assay type: in vivo, Alopecurus myosuroides; conditions: Preemergence
Method in brief: (§1)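 Response is a visual 0-to-10 score relative to untreated plants, where 0 means no effect and 10 means complete control, taken twelve to sixteen days after application. Treatments went onto soil at planting and onto foliage of 1- to 4-leaf plants, using a surfactant-containing non-phytotoxic solvent.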

surinam grass = experiment: Test B pre/postemergence surinam grass; assay type: in vivo, Brachiaria decumbens; conditions: Preemergence
Method in brief: as §1

soybean = experiment: Test B pre/postemergence soybean; assay type: in vivo, Glycine max; conditions: Preemergence
Method in brief: as §1

bedstraw = experiment: Test B pre/postemergence bedstraw; assay type: in vivo, Galium aparine; conditions: Preemergence
Method in brief: as §1

wheat = experiment: Test B pre/postemergence wheat; assay type: in vivo, Triticum aestivum; conditions: Preemergence
Method in brief: as §1

purple nutsedge = experiment: Test B pre/postemergence purple nutsedge; assay type: in vivo, Cyperus rotundus; conditions: Preemergence
Method in brief: as §1

corn = experiment: Test B pre/postemergence corn; assay type: in vivo, Zea mays; conditions: Preemergence
Method in brief: as §1

crabgrass = experiment: Test B pre/postemergence crabgrass; assay type: in vivo, Digitaria sanguinalis; conditions: Preemergence
Method in brief: as §1

sugar beet = experiment: Test B pre/postemergence sugar beet; assay type: in vivo, Beta vulgaris; conditions: Preemergence
Method in brief: as §1

cocklebur = experiment: Test B pre/postemergence cocklebur; assay type: in vivo, Xanthium strumarium; conditions: Preemergence
Method in brief: as §1

morningglory = experiment: Test B pre/postemergence morningglory; assay type: in vivo, Ipomoea hederacea; conditions: Preemergence
Method in brief: as §1

smallflower flatsedge = experiment: Test B flood test smallflower flatsedge; assay type: in vivo, Cyperus difformis
Method in brief: (§2)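 Flood test on plants grown to the 2-leaf stage; treated plants kept in greenhouse twelve to sixteen days, then visually rated against controls on a 0 (no effect) to 10 (complete control) scale.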

giant foxtail = experiment: Test B pre/postemergence giant foxtail; assay type: in vivo, Setaria faberii; conditions: Preemergence
Method in brief: as §1

wild oat = experiment: Test B pre/postemergence wild oat; assay type: in vivo, Avena fatua; conditions: Preemergence
Method in brief: as §1

velvetleaf = experiment: Test B pre/postemergence velvetleaf; assay type: in vivo, Abutilon theophrasti; conditions: Preemergence
Method in brief: as §1

duck salad = experiment: Test B flood test duck salad; assay type: in vivo, Heteranthera limosa
Method in brief: as §2

rice = experiment: Test B flood test rice; assay type: in vivo, Oryza sativa
Method in brief: as §2

rape = experiment: Test B pre/postemergence rape; assay type: in vivo, Brassica napus; conditions: Preemergence
Method in brief: as §1

bamyardgrass = experiment: Test B flood test barnyardgrass; assay type: in vivo, Echinochloa crus-galli
Method in brief: as §2

pigweed = experiment: Test B pre/postemergence pigweed; assay type: in vivo, Amaranthus retroflexus; conditions: Preemergence
Method in brief: as §1

[1] = Rate 125 g/ha, scale of 0 to 10 where 0 is no effect and 10 is complete control
[2] = Rate 250 g/ha, scale 0 to 10 (0 no effect, 10 complete control)
[3] = Rate 500 g/ha, scale of 0 to 10 where 0 is no effect and 10 is complete control
[4] = Rate 1000 g/ha, scale 0 to 10 (0 no effect, 10 complete control)
[5] = Rate 62 g/ha, flood test species, Pre-emergence, visual evaluation after twelve to sixteen days
[6] = Rate 125 g/ha, under heading Pre-emergence, flood test species, visual evaluation after twelve to sixteen days
[7] = Rate 250 g/ha, Pre-emergence (flood test species), scale 0 to 10, 0 is no effect, 10 is complete control
[8] = Rate 500 g/ha, Pre-emergence section of Table B, 0 to 10 scale (0 no effect, 10 complete control)

COP(=O)(CCn1c(=O)on(C(=O)N(c2ccccc2)C(C)C)c1=O)OC [Compound 697]
Plant response rating, Blackgrass (blackgrass; [1]): 0 | Plant response rating, Blackgrass (blackgrass; [2]): 2 | Plant response rating, Blackgrass (blackgrass; [3]): 6 | Plant response rating, Blackgrass (blackgrass; [4]): 10 | Plant response rating, B. signalgrass (surinam grass; [1]): 0 | Plant response rating, B. signalgrass (surinam grass; [2]): 0 | Plant response rating, B. signalgrass (surinam grass; [3]): 5 | Plant response rating, B. signalgrass (surinam grass; [4]): 9 | Plant response rating, Soybean (soybean; [1]): 0 | Plant response rating, Soybean (soybean; [4]): 0 | Plant response rating, Bedstraw (bedstraw; [1]): 0 | Plant response rating, Bedstraw (bedstraw; [2]): 0 | Plant response rating, Bedstraw (bedstraw; [3]): 0 | Plant response rating, Bedstraw (bedstraw; [4]): 0 | Plant response rating, Wheat (wheat; [1]): 0 | Plant response rating, Wheat (wheat; [4]): 7 | Plant response rating, Nutsedge (purple nutsedge; [1]): 0 | Plant response rating, Nutsedge (purple nutsedge; [4]): 0 | Plant response rating, Corn (corn; [1]): 0 | Plant response rating, Corn (corn; [2]): 0 | Plant response rating, Corn (corn; [4]): 0 | Plant response rating, Crabgrass (crabgrass; [1]): 0 | Plant response rating, Crabgrass (crabgrass; [2]): 4 | Plant response rating, Crabgrass (crabgrass; [4]): 9 | Plant response rating, Sugarbeets (sugar beet; [1]): 0 | Plant response rating, Sugarbeets (sugar beet; [4]): 0 | Plant response rating, Cocklebur (cocklebur; [2]): 0 | Plant response rating, Cocklebur (cocklebur; [3]): 0 | Plant response rating, Cocklebur (cocklebur; [4]): 0 | Plant response rating, Morningglory (morningglory; [1]): 0 | Plant response rating, Morningglory (morningglory; [4]): 5 | Plant response rating, S. Flatsedge (0 to 10 scale, 0 is no effect, 10 is complete control) (smallflower flatsedge; [5]): 0 | S. Flatsedge plant response rating (0 to 10 scale, 0 is no effect, 10 is complete control) (smallflower flatsedge; [6]): 0 | S. Flatsedge plant response rating (smallflower flatsedge; [7]): 0 | S. Flatsedge plant response rating (smallflower flatsedge; [8]): 0 | Plant response rating, Giant foxtail (giant foxtail; [1]): 0 | Plant response rating, Giant foxtail (giant foxtail; [4]): 10 | Plant response rating, Wild oats (wild oat; [1]): 0 | Plant response rating, Wild oats (wild oat; [4]): 9 | Plant response rating, Velvetleaf (velvetleaf; [1]): 0 | Plant response rating, Velvetleaf (velvetleaf; [4]): 2 | Plant response rating, Ducksalad (0 to 10 scale, 0 is no effect, 10 is complete control) (duck salad; [5]): 0 | Ducksalad plant response rating (0 to 10 scale, 0 is no effect, 10 is complete control) (duck salad; [6]): 0 | Ducksalad plant response rating (duck salad; [7]): 0 | Ducksalad plant response rating (duck salad; [8]): 0 | Plant response rating, Rice (0 to 10 scale, 0 is no effect, 10 is complete control) (rice; [5]): 0 | Rice plant response rating (0 to 10 scale, 0 is no effect, 10 is complete control) (rice; [6]): 0 | Rice plant response rating (rice; [7]): 0 | Rice plant response rating (rice; [8]): 0 | Plant response rating, Rape (rape; [1]): 0 | Plant response rating, Rape (rape; [4]): 0 | Plant response rating, Barnyardgrass (0 to 10 scale, 0 is no effect, 10 is complete control) (bamyardgrass; [5]): 0 | Barnyardgrass plant response rating (0 to 10 scale, 0 is no effect, 10 is complete control) (bamyardgrass; [6]): 0 | Barnyardgrass plant response rating (bamyardgrass; [7]): 0 | Barnyardgrass plant response rating (bamyardgrass; [8]): 0 | Plant response rating, Redroot pigweed (pigweed; [1]): 0 | Plant response rating, Redroot pigweed (pigweed; [4]): 0
